According to patent US8716292B2, “Riminophenazines with 2-(heteroaryl)amino substituents and their anti-microbial activity” (priority 2010, dated 2014):
≈ marks a conversion by molar mass, not a printed value. Like-named read-outs stand apart in the source and are kept apart here.

Assays:
[1] = system: Mycobacterium tuberculosis H37Rv strains; experiment: In vitro assay for antimicrobial susceptibility (microplate Alamar blue MIC); type: cell-based; conditions: for MIC: Mycobacterium tuberculosis, H37RV, read-out: MIC (μg/mL) against H37Rv
H37Rv = experiment: In vivo testing: mice infected intravenously with H37Rv, lung tissue CFU counts; design: species or system Male BALB/c mice; conditions: thirty days postinfection; for Log CFU (TBI treated): 20 mg/kg, gavage 5 times weekly, lung tissue CFU; for log reduction at 20 mg/kg: Mycobacterium tuberculosis, H37RV, iv, 720 h, versus untreated control, lung tissue, read-out: Log CFU Reduction (TBI treated)
Protocol: Male BALB/c mice (18˜20 g) were infected intravenously with 0.2 ml portions containing 1×10^5 CFU of H37Rv. One day after the infection, four mice were sacrificed and the numbers of CFU in the spleens and lungs were determined. Organs were removed and homogenized in Middlebrook 7H9 broth. To enumerate CFU, appropriate dilutions of the homogenates were plated onto Middlebrook 7H10 agar and colonies were counted after 3 to 4 weeks of incubation at 37° C. The remaining mice were allocated either to untreated groups or to various drug treated groups (six mice per group). The dose of every test compound was 20 mg/kg. The positive control groups were treated by isoniazid and clofazimine. The test compounds and clofazimine were administered by gavage 5 times weekly. Untreated mice were administered by gavage with CMC. Thirty days postinfection, both untreated and treated mice were sacrificed and lung tissue CFU counts were determined. The significance of the CFU count and organ weight difference was assessed by a two-tailed Student t test. P≦0.01 was considered significant.

[2] = in vitro, Mycobacterium tuberculosis H37Rv strains
[3] = 7H9, Alamar blue, inhibition ≧90%

| SMILES | MIC [1, 2] [µg/mL] | MIC [1, 3] [µg/mL] | also measured |
| --- | --- | --- | --- |
| FC(F)(F)Oc1ccc(-n2c3c/c(=N\C4CCOCC4)c(Nc4cccnc4)cc-3nc3ccccc32)cc1 [TBI-161, 5-(4-Trifluoromethoxyphenyl)-3-(4-tetrahydropyranyl)imino-2-(3-pyridyl)amino-3,5-dihydrophenazine] | 0.03 (≈ 0.0564 µM) | – | Log CFU (TBI treated) (H37Rv): 6.05; log reduction at 20 mg/kg (H37Rv): 2.77 |
| COc1ncccc1Nc1cc2nc3ccccc3n(-c3ccc(OC(F)(F)F)cc3)c-2c/c1=N\C1CCC(OC)CC1 (stereo not shown) [TBI-166, 5-(4-Trifluoromethoxyphenyl)-(4-methoxycyclohexyl)imino-2-(2-methoxy-3-pyridyl)amino-3,5-dihydrophenazine] | 0.016 (≈ 0.0271 µM) | – | Log CFU (TBI treated) (H37Rv): 4.66; log reduction at 20 mg/kg (H37Rv): 3.87 |
| CC(C)/N=c1\cc2n(-c3ccc(Cl)cc3)c3ccccc3nc-2cc1Nc1cccnc1 [TBI-416, 5-(4-chlorophenyl)-3-(1-methylethyl)imino-2-(3-pyridyl)amino-3,5-dihydrophenazine] | 0.03 (≈ 0.0682 µM) | – | Log CFU (TBI treated) (H37Rv): 3.83; log reduction at 20 mg/kg (H37Rv): 4.7 |
| COc1ncccc1Nc1cc2nc3ccccc3n(-c3ccc(Cl)cc3)c-2c/c1=N\C1CCOCC1 [TBI-443, 5-(4-chlorophenyl)-3-(4-tetrahydropyranyl)imino-2-(2-methoxy-3-pyridyl)amino-3,5-dihydrophenazine] | 0.016 (≈ 0.0312 µM) | – | Log CFU (TBI treated) (H37Rv): 5.13; log reduction at 20 mg/kg (H37Rv): 3.4 |
| COc1ncccc1Nc1cc2nc3ccccc3n(-c3ccc(Cl)cc3)c-2c/c1=N\C1CCC(OC)CC1 (stereo not shown) [TBI-444, 5-(4-Chlorophenyl)-3-(4-methoxycyclohexyl)imino-2-(2-methoxy-3-pyridyl)amino-3,5-dihydrophenazine] | 0.016 (≈ 0.0296 µM) | – | Log CFU (TBI treated) (H37Rv): 4.71; log reduction at 20 mg/kg (H37Rv): 3.82 |
| Cc1ccc(Nc2cc3nc4ccccc4n(-c4ccc(Cl)cc4)c-3c/c2=N\C2CCOCC2)cn1 [TBI-449, 5-(4-Chlorophenyl)-3-(4-tetrahydropyranyl)imino-2-(6-methyl-3-pyridyl)amino-3,5-dihydrophenazine] | 0.03 (≈ 0.0605 µM) | – | Log CFU (TBI treated) (H37Rv): 3.87; log reduction at 20 mg/kg (H37Rv): 4.66 |
| COC1CCC(/N=c2\cc3n(-c4ccc(Cl)cc4)c4ccccc4nc-3cc2Nc2ccc(C)nc2)CC1 (stereo not shown) [TBI-450, 5-(4-Chlorophenyl)-3-(4-methoxycyclohexyl)imino-2-(6-methyl-3-pyridyl)amino-3,5-dihydrophenazine] | 0.016 (≈ 0.0305 µM) | – | Log CFU (TBI treated) (H37Rv): 3.64; log reduction at 20 mg/kg (H37Rv): 4.89 |
| COc1ncccc1Nc1cc2nc3ccccc3n(-c3ccc(F)cc3)c-2c/c1=N\C(C)C [TBI-1004, 5-(4-Fluorophenyl)-3-(1-methylethyl)imino-2-(2-methoxy-3-pyridyl)amino-3,5-dihydrophenazine] | – | – | Log CFU (TBI treated) (H37Rv): 4.28; log reduction at 20 mg/kg (H37Rv): 4.25 |
| N#Cc1cccnc1Nc1cc2nc3ccccc3n(-c3ccc(F)cc3)c-2c/c1=N\C1CCOCC1 [TBI-1086, 5-(4-Fluorophenyl)-3-(4-tetrahydropyranyl)imino-2-(3-cyano-2-pyridyl)amino-3,5-dihydrophenazine] | – | 0.04 (≈ 0.0815 µM) | – |
| Fc1ccc(-n2c3c/c(=N\C4CCOCC4)c(Nc4ccccn4)cc-3nc3ccccc32)cc1 [TBI-1087, 5-(4-Fluorophenyl)-3-(4-tetrahydropyranyl)imino-2-(2-pyridyl)amino-3,5-dihydrophenazine] | – | 0.028 (≈ 0.0601 µM) | – |
| O=[N+]([O-])c1cccnc1Nc1cc2nc3ccccc3n(-c3ccc(F)cc3)c-2c/c1=N\C1CCOCC1 [TBI-1088, 5-(4-Fluorophenyl)-3-(4-tetrahydropyranyl)imino-2-(3-nitro-2-pyridyl)amino-3,5-dihydrophenazine] | – | 0.028 (≈ 0.0548 µM) | – |
| COC1CCC(/N=c2\cc3n(-c4ccc(Cl)cc4)c4ccccc4nc-3cc2Nc2ncccn2)CC1 (stereo not shown) [TBI-1090, 5-(4-Chlorophenyl)-3-(4-methoxycyclohexyl)imino-2-(pyrimidin-2-yl)amino-3,5-dihydrophenazine] | – | < 0.0075 | – |
| COC1CCC(/N=c2\cc3n(-c4ccc(Cl)cc4)c4ccccc4nc-3cc2Nc2cnccn2)CC1 (stereo not shown) [TBI-1091, 5-(4-Chlorophenyl)-3-(4-methoxycyclohexyl)imino-2-(pyrazin-2-yl)amino-3,5-dihydrophenazine] | – | 0.018 (≈ 0.0352 µM) | – |
| COc1nc(C)ccc1Nc1cc2nc3ccccc3n(-c3ccc(F)cc3)c-2c/c1=N\C(C)C [TBI-1092, 5-(4-Fluorophenyl)-3-(1-methylethyl)imino-2-(2-methoxy-6-methyl-3-pyridyl)amino-3,5-dihydrophenazine] | 0.424 (≈ 0.907 µM) | – | – |
| COc1ncccc1Nc1cc2nc3ccccc3n(-c3ccc(NC(C)=O)cc3)c-2c/c1=N\C(C)C [TBI-1220, 5-(4-Acetamidophenyl)-3-(1-methylethyl)imino-2-(2-methoxy-3-pyridyl)amino-3,5-dihydrophenazine] | > 0.5 | – | – |
| COc1ncccc1Nc1cc2nc3ccccc3n(-c3ccc(NC(C)=O)cc3)c-2c/c1=N\C1CC1 [TBI-1221, 5-(4-Acetamidophenyl)-3-cyclopropylimino-2-(2-methoxy-3-pyridyl)amino-3,5-dihydrophenazine] | 0.9 (≈ 1.83 µM) | – | – |

| SMILES | MIC [1, 2] [µg/mL] | MIC [1, 3] [µg/mL] | also measured |
| --- | --- | --- | --- |
| COc1ncccc1Nc1cc2nc3ccccc3n(-c3ccc(NC(C)=O)cc3)c-2c/c1=N\C1CCC(OC)CC1 (stereo not shown) [TBI-1222, 5-(4-Acetamidophenyl)-3-(4-methoxycyclohexyl)imino-2-(2-methoxy-3-pyridyl)amino-3,5-dihydrophenazine] | 0.925 (≈ 1.64 µM) | – | – |
| COc1ncccc1Nc1cc2nc3ccccc3n(-c3ccc(NC(C)=O)cc3)c-2c/c1=N\C1CCCCC1 [TBI-1223, 5-(4-Acetamidophenyl)-3-cyclohexylimino-2-(2-methoxy-3-pyridyl)amino-3,5-dihydrophenazine] | 1.49 (≈ 2.79 µM) | – | – |
| CC(=O)Nc1ccc(-n2c3c/c(=N\C(C)C)c(Nc4ccc(C)nc4)cc-3nc3ccccc32)cc1 [TBI-1228, 5-(4-Acetamidophenyl)-3-(1-methylethyl)imino-2-(6-methyl-3-pyridyl)amino-3,5-dihydrophenazine] | 2.4 (≈ 5.03 µM) | – | – |
| COC1CCC(/N=c2\cc3n(-c4ccc(NC(C)=O)cc4)c4ccccc4nc-3cc2Nc2ccc(C)nc2)CC1 (stereo not shown) [TBI-1229] | 0.482 (≈ 0.882 µM) | – | – |
| COc1ncccc1Nc1cc2nc3ccccc3n(-c3ccc(F)c(F)c3)c-2c/c1=N\C1CCOCC1 [TBI-1428, 5-(3,4-Difluorophenyl)-3-(4-tetrahydropyranyl)imino-2-(2-methoxy-3-pyridyl)amino-3,5-dihydrophenazine] | – | – | MIC (μg/mL) against H37Rv [1, 2]: 0.054 µg/mL (≈ 0.105 µM) |
| Fc1ccc(-n2c3c/c(=N\C4CC4)c(Nc4cccnc4)cc-3nc3ccccc32)cc1F [TBI-1429, 5-(3,4-Difluorophenyl)-3-cyclopropylimino-2-(3-pyridyl)amino-3,5-dihydrophenazine] | 0.011 (≈ 0.025 µM) | – | – |
| COC1CCC(/N=c2\cc3n(-c4ccc(F)c(F)c4)c4ccccc4nc-3cc2Nc2cccnc2)CC1 (stereo not shown) [TBI-1430, 5-(3,4-Difluorophenyl)-3-(4-methoxycyclohexyl)imino-2-(3-pyridyl)amino-3,5-dihydrophenazine] | 0.059 (≈ 0.115 µM) | – | – |
| Fc1ccc(-n2c3c/c(=N\C4CCOCC4)c(Nc4cccnc4)cc-3nc3ccccc32)cc1F [TBI-1432, 5-(3,4-Difluorophenyl)-3-(4-tetrahydropyranyl)imino-2-(3-pyridyl)amino-3,5-dihydrophenazine] | 0.088 (≈ 0.182 µM) | – | – |
| COC1CCC(/N=c2\cc3n(-c4ccc(F)c(F)c4)c4ccccc4nc-3cc2Nc2ncccn2)CC1 (stereo not shown) [TBI-1433, 5-(3,4-Difluorophenyl)-3-(4-methoxycyclohexyl)imino-2-(pyrimidin-2-yl)amino-3,5-dihydrophenazine] | – | 0.086 (≈ 0.168 µM) | – |
| CC(C)/N=c1\cc2n(-c3ccc(F)c(F)c3)c3ccccc3nc-2cc1Nc1ccccn1 [TBI-1436, 5-(3,4-Difluorophenyl)-3-(1-methylethyl)imino-2-(2-pyridyl)amino-3,5-dihydrophenazine] | – | 0.028 (≈ 0.0634 µM) | – |
| CC(C)/N=c1\cc2n(-c3ccc(F)c(F)c3)c3ccccc3nc-2cc1Nc1ncccn1 [TBI-1437, 5-(3,4-Difluorophenyl)-3-(1-methylethyl)imino-2-(pyrimidin-2-yl)amino-3,5-dihydrophenazine] | – | 0.02 (≈ 0.0452 µM) | – |
| CC(C)/N=c1\cc2n(-c3ccc(F)c(F)c3)c3ccccc3nc-2cc1Nc1ncccc1C#N [TBI-1438, 5-(3,4-Difluorophenyl)-3-(1-methylethyl)imino-2-(3-cyano-2-pyridyl)amino-3,5-dihydrophenazine] | – | 0.053 (≈ 0.114 µM) | – |
| COC1CCC(/N=c2\cc3n(-c4ccc(F)c(F)c4)c4ccccc4nc-3cc2Nc2ccc([N+](=O)[O-])cn2)CC1 (stereo not shown) [TBI-1444, 5-(3,4-Difluorophenyl)-3-(4-methoxycyclohexyl)imino-2-(5-nitro-2-pyridyl)amino-3,5-dihydrophenazine] | – | 0.114 (≈ 0.205 µM) | – |
| COC1CCC(/N=c2\cc3n(-c4ccc(F)c(F)c4)c4ccccc4nc-3cc2Nc2cnccn2)CC1 (stereo not shown) [TBI-1445, 5-(3,4-Difluorophenyl)-3-(4-methoxycyclohexyl)imino-2-(pyrazin-2-yl)amino-3,5-dihydrophenazine] | – | 0.056 (≈ 0.109 µM) | – |
| CC(C)/N=c1\cc2n(-c3ccc(F)c(F)c3)c3ccccc3nc-2cc1Nc1cnccn1 [TBI-1446, 5-(3,4-Difluorophenyl)-3-(1-methylethyl)imino-2-(pyrazin-2-yl)amino-3,5-dihydrophenazine] | – | 0.03 (≈ 0.0678 µM) | – |
